# Measurements from US20230263822A1, “MODULATION OF FACTOR 11 EXPRESSION” (Ionis Pharmaceuticals, Inc., priority 2008, published 2023).
# Tests used:
# human Factor 11 mRNA = assay: Dose-dependent inhibition of human Factor 11 in HepB3 cells, lipofectin (Example 7); assay type: cell-based; settings: for percent inhibition of Factor 11 mRNA relative to untreated control cells: ~16 hours
# Procedure: Cells were plated at a density of 4,000 cells per well and transfected using lipofectin reagent with 2.3 nM, 4.7 nM, 9.4 nM, 18.75 nM, 37.5 nM, and 75 nM concentrations of antisense oligonucleotide, as specified in Table 14. After a treatment period of approximately 16 hours, RNA was isolated from the cells and human Factor 11 mRNA levels were measured by quantitative real-time PCR. Human Factor 11 primer probe set RTS 2966 was used to measure mRNA levels. Factor 11 mRNA levels were adjusted according to total RNA content, as measured by RIBOGREEN. Results are presented as percent inhibition of Factor 11, relative to untreated control cells.
# [1] = Tolerability in Sprague-Dawley rats: hematology assays (Example 35); settings: 50 mg/kg s.c. twice per week for 6 weeks; for HCT / MCH / MCHC / MCV: title says % control
# Procedure: A control group of four Sprague Dawley rats was injected subcutaneously with PBS twice per week for 6 weeks. Body weight measurements were taken before and throughout the treatment period. Urine samples were taken before the start of treatment. Three days after the last dose, urine samples were taken and the rats were sacrificed. Organ weights were measured and blood was collected for further analysis.
# Blood obtained from all rat groups were sent to Antech Diagnostics for hematocrit (HCT), mean corpuscular volume (MCV), mean corpuscular hemoglobin (MCV), and mean corpuscular hemoglobin concentration (MCHC) measurements and analyses, as well as measurements of various blood cells, such as WBC (neutrophils, lymphocytes and monocytes), RBC, and platelets as well as hemoglobin content.
# [2] = Body and organ weights of cynomolgus monkeys (Example 45); assay type: in vivo; settings: for Organ weights, Kidney / Organ weights, Liver / Organ weights, Spleen: after the animals were euthanized; for body weights: escalating dose regimen;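 as to Organ weights, Kidney: absolute organ weight in grams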;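 as to Organ weights, Liver: absolute organ weight in grams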;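 as to Organ weights, Spleen: absolute organ weight in grams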
# Procedure: Groups, each consisting of two male and three female monkeys, were injected subcutaneously with ISIS 416838, ISIS 416850, ISIS 416858, ISIS 416864, or ISIS 417002 in escalating doses. Antisense oligonucleotide was administered to the monkeys at 5 mg/kg three times per a week for week 1; 5 mg/kg twice per week for weeks 2 and 3; 10 mg/kg three times per week for week 4; 10 mg/kg twice per week for weeks 5 and 6; 25 mg/kg three times per week for week 7; and 25 mg/kg twice per week for weeks 8, 9, 10, 11, and 12. One control group, consisting of two male and three female monkeys, was injected subcutaneously with PBS according to the same dosing regimen. An additional experimental group, consisting of two male and three female monkeys, was injected subcutaneously with ISIS 416850 in a chronic, lower dose regimen. Antisense oligonucleotide was administered to the monkeys at 5 mg/kg three times per week for week 1; 5 mg/kg twice per week for week 2 and 3; 10 mg/kg three times per week for week 4; and 10 mg/kg twice per week for weeks 5 to 12. Body weights were measured weekly. Blood samples were collected 14 days and 5 days before the start of treatment and subsequently once per week for Factor 11 protein activity analysis in plasma, fibrinogen measurement, PT and aPTT measurements, bleeding times, and measurement of various hematologic factors. On day 85, the monkeys were euthanized by exsanguination while under deep anesthesia, and organs harvested for further analysis.
# Body weights were taken once weekly throughout the dosing regimen. […] Organ weights were taken after the animals were euthanized and livers, kidneys and spleens were harvested and weighed. […] The ISIS oligonucleotide, ISIS 416850, given with the chronic dose regimen is distinguished from the other oligonucleotides with an asterisk (*).
substance,measurement,setting,value
"416838 (antisense GCAACCGGGATGATGAGTGC; 5-10-5 gapmer, further chemistry not given here) [compound 416838]",IC50,human Factor 11 mRNA,11 nM
same,percent inhibition of Factor 11 mRNA relative to untreated control cells,human Factor 11 mRNA; 2.3 nM,23%
same,percent inhibition of Factor 11 mRNA relative to untreated control cells,human Factor 11 mRNA; 4.7 nM,34%
same,percent inhibition of Factor 11 mRNA relative to untreated control cells,human Factor 11 mRNA; 9.4 nM,43%
same,percent inhibition of Factor 11 mRNA relative to untreated control cells,human Factor 11 mRNA; 18.75 nM,59%
same,percent inhibition of Factor 11 mRNA relative to untreated control cells,human Factor 11 mRNA; 37.5 nM,71%
same,percent inhibition of Factor 11 mRNA relative to untreated control cells,human Factor 11 mRNA; 75 nM,56%
"ISIS 417002: MOE gapmer, nucleobases 1275 to 1318 of SEQ ID NO: 1 (Table 8) (antisense GGTGCACAGTTTCTGGCAGG; MOE gapmer, wing and gap sizes not given here)",Platelets,[1],7 10^3/μL
same,RBC,[1],5
same,WBC,[1],23 nL⁻¹
same,lymphocytes,[1],4%
same,monocytes,[1],25%
same,neutrophils,[1],22%
same,HCT,[1],7%
same,MCH,[1],3
same,MCHC,[1],5%
same,MCV,[1],7
same,"Organ weights, Kidney",[2],15 g
same,"Organ weights, Liver",[2],51 g
same,"Organ weights, Spleen",[2],5 g
same,body weights,[2]; day 1,2640 g
same,body weights,[2]; day 8,2523 g
same,body weights,[2]; day 15,2571 g
same,body weights,[2]; day 22,2617 g
same,body weights,[2]; day 29,2622 g
same,body weights,[2]; day 36,2631 g
same,body weights,[2]; day 43,2630 g
same,body weights,[2]; day 50,2652 g
same,body weights,[2]; day 57,2654 g
same,body weights,[2]; day 64,2598 g
same,body weights,[2]; day 71,2727 g
same,body weights,[2]; day 78,2570 g
"416925 (antisense GGTGCACAGTTTCTGGCAGG; 3-14-3 gapmer chemistry, further chemistry not given here) [compound 416925]",IC50,human Factor 11 mRNA,12 nM
same,percent inhibition of Factor 11 mRNA relative to untreated control cells,human Factor 11 mRNA; 2.3 nM,26%
same,percent inhibition of Factor 11 mRNA relative to untreated control cells,human Factor 11 mRNA; 4.7 nM,33%
same,percent inhibition of Factor 11 mRNA relative to untreated control cells,human Factor 11 mRNA; 9.4 nM,45%
same,percent inhibition of Factor 11 mRNA relative to untreated control cells,human Factor 11 mRNA; 18.75 nM,59%
same,percent inhibition of Factor 11 mRNA relative to untreated control cells,human Factor 11 mRNA; 37.5 nM,72%
same,percent inhibition of Factor 11 mRNA relative to untreated control cells,human Factor 11 mRNA; 75 nM,60%
"416864 (antisense GGCAGCGGACGGCATTGGTG; 5-10-5 gapmer, further chemistry not given here) [compound 416864]",IC50,human Factor 11 mRNA,9 nM
same,percent inhibition of Factor 11 mRNA relative to untreated control cells,human Factor 11 mRNA; 2.3 nM,24%
same,percent inhibition of Factor 11 mRNA relative to untreated control cells,human Factor 11 mRNA; 4.7 nM,37%
same,percent inhibition of Factor 11 mRNA relative to untreated control cells,human Factor 11 mRNA; 9.4 nM,42%
same,percent inhibition of Factor 11 mRNA relative to untreated control cells,human Factor 11 mRNA; 18.75 nM,66%
same,percent inhibition of Factor 11 mRNA relative to untreated control cells,human Factor 11 mRNA; 37.5 nM,76%
same,percent inhibition of Factor 11 mRNA relative to untreated control cells,human Factor 11 mRNA; 75 nM,63%
"416999 (antisense GCACAGTTTCTGGCAGGCCT; 2-13-5 gapmer chemistry, further chemistry not given here) [compound 416999]",IC50,human Factor 11 mRNA,12 nM
same,percent inhibition of Factor 11 mRNA relative to untreated control cells,human Factor 11 mRNA; 2.3 nM,19%
same,percent inhibition of Factor 11 mRNA relative to untreated control cells,human Factor 11 mRNA; 4.7 nM,33%
same,percent inhibition of Factor 11 mRNA relative to untreated control cells,human Factor 11 mRNA; 9.4 nM,42%
same,percent inhibition of Factor 11 mRNA relative to untreated control cells,human Factor 11 mRNA; 18.75 nM,60%
same,percent inhibition of Factor 11 mRNA relative to untreated control cells,human Factor 11 mRNA; 37.5 nM,71%
same,percent inhibition of Factor 11 mRNA relative to untreated control cells,human Factor 11 mRNA; 75 nM,59%
"416825 (antisense GCCCTTCATGTCTAGGTCCA; 5-10-5 gapmer, further chemistry not given here) [compound 416825]",IC50,human Factor 11 mRNA,35 nM
same,percent inhibition of Factor 11 mRNA relative to untreated control cells,human Factor 11 mRNA; 2.3 nM,0%
same,percent inhibition of Factor 11 mRNA relative to untreated control cells,human Factor 11 mRNA; 4.7 nM,15%
same,percent inhibition of Factor 11 mRNA relative to untreated control cells,human Factor 11 mRNA; 9.4 nM,34%
same,percent inhibition of Factor 11 mRNA relative to untreated control cells,human Factor 11 mRNA; 18.75 nM,36%
same,percent inhibition of Factor 11 mRNA relative to untreated control cells,human Factor 11 mRNA; 37.5 nM,53%
same,percent inhibition of Factor 11 mRNA relative to untreated control cells,human Factor 11 mRNA; 75 nM,59%
"416850 (antisense TGCACAGTTTCTGGCAGGCC; 5-10-5 gapmer, further chemistry not given here) [compound 416850]",IC50,human Factor 11 mRNA,13 nM
same,percent inhibition of Factor 11 mRNA relative to untreated control cells,human Factor 11 mRNA; 2.3 nM,22%
same,percent inhibition of Factor 11 mRNA relative to untreated control cells,human Factor 11 mRNA; 4.7 nM,32%
same,percent inhibition of Factor 11 mRNA relative to untreated control cells,human Factor 11 mRNA; 9.4 nM,43%
same,percent inhibition of Factor 11 mRNA relative to untreated control cells,human Factor 11 mRNA; 18.75 nM,56%
same,percent inhibition of Factor 11 mRNA relative to untreated control cells,human Factor 11 mRNA; 37.5 nM,75%
same,percent inhibition of Factor 11 mRNA relative to untreated control cells,human Factor 11 mRNA; 75 nM,60%
"416858 (antisense ACGGCATTGGTGCACAGTTT; 5-10-5 gapmer, further chemistry not given here) [compound 416858]",IC50,human Factor 11 mRNA,12 nM
same,percent inhibition of Factor 11 mRNA relative to untreated control cells,human Factor 11 mRNA; 2.3 nM,17%
same,percent inhibition of Factor 11 mRNA relative to untreated control cells,human Factor 11 mRNA; 4.7 nM,34%
same,percent inhibition of Factor 11 mRNA relative to untreated control cells,human Factor 11 mRNA; 9.4 nM,43%
same,percent inhibition of Factor 11 mRNA relative to untreated control cells,human Factor 11 mRNA; 18.75 nM,57%
same,percent inhibition of Factor 11 mRNA relative to untreated control cells,human Factor 11 mRNA; 37.5 nM,74%
same,percent inhibition of Factor 11 mRNA relative to untreated control cells,human Factor 11 mRNA; 75 nM,62%
"416892 (antisense GCCCTTCATGTCTAGGTCCA; 3-14-3 chimeric gapmer, further chemistry not given here) [compound 416892]",IC50,human Factor 11 mRNA,9 nM
same,percent inhibition of Factor 11 mRNA relative to untreated control cells,human Factor 11 mRNA; 2.3 nM,28%
same,percent inhibition of Factor 11 mRNA relative to untreated control cells,human Factor 11 mRNA; 4.7 nM,34%
same,percent inhibition of Factor 11 mRNA relative to untreated control cells,human Factor 11 mRNA; 9.4 nM,50%
same,percent inhibition of Factor 11 mRNA relative to untreated control cells,human Factor 11 mRNA; 18.75 nM,68%
same,percent inhibition of Factor 11 mRNA relative to untreated control cells,human Factor 11 mRNA; 37.5 nM,82%
same,percent inhibition of Factor 11 mRNA relative to untreated control cells,human Factor 11 mRNA; 75 nM,72%
"ISIS 416838: MOE gapmer, nucleobases 1018 to 1042 of SEQ ID NO: 1 (Table 6) (antisense GCAACCGGGATGATGAGTGC; MOE gapmer, wing and gap sizes not given here)",Platelets,[1],27 10^3/μL
same,RBC,[1],4
same,WBC,[1],13 nL⁻¹
same,lymphocytes,[1],3%
same,monocytes,[1],6%
same,neutrophils,[1],17%
same,HCT,[1],5%
same,MCH,[1],2
same,MCHC,[1],5%
same,MCV,[1],4
same,"Organ weights, Kidney",[2],12 g
same,"Organ weights, Liver",[2],63 g
same,"Organ weights, Spleen",[2],5 g
same,body weights,[2]; day 1,2720 g
same,body weights,[2]; day 8,2592 g
same,body weights,[2]; day 15,2642 g
same,body weights,[2]; day 22,2702 g
same,body weights,[2]; day 29,2689 g
same,body weights,[2]; day 36,2708 g
same,body weights,[2]; day 43,2700 g
same,body weights,[2]; day 50,2731 g
same,body weights,[2]; day 57,2737 g
same,body weights,[2]; day 64,2746 g
same,body weights,[2]; day 71,2869 g
same,body weights,[2]; day 78,2766 g
"416826 (antisense ATGCCCTTCATGTCTAGGTC; 5-10-5 gapmer, further chemistry not given here) [compound 416826]",IC50,human Factor 11 mRNA,16 nM
same,percent inhibition of Factor 11 mRNA relative to untreated control cells,human Factor 11 mRNA; 2.3 nM,16%
same,percent inhibition of Factor 11 mRNA relative to untreated control cells,human Factor 11 mRNA; 4.7 nM,28%
same,percent inhibition of Factor 11 mRNA relative to untreated control cells,human Factor 11 mRNA; 9.4 nM,38%
same,percent inhibition of Factor 11 mRNA relative to untreated control cells,human Factor 11 mRNA; 18.75 nM,55%
same,percent inhibition of Factor 11 mRNA relative to untreated control cells,human Factor 11 mRNA; 37.5 nM,64%
same,percent inhibition of Factor 11 mRNA relative to untreated control cells,human Factor 11 mRNA; 75 nM,66%
"417003 (antisense TGGTGCACAGTTTCTGGCAG; 2-13-5 gapmer chemistry, further chemistry not given here) [compound 417003]",IC50,human Factor 11 mRNA,17 nM
same,percent inhibition of Factor 11 mRNA relative to untreated control cells,human Factor 11 mRNA; 2.3 nM,11%
same,percent inhibition of Factor 11 mRNA relative to untreated control cells,human Factor 11 mRNA; 4.7 nM,28%
same,percent inhibition of Factor 11 mRNA relative to untreated control cells,human Factor 11 mRNA; 9.4 nM,40%
same,percent inhibition of Factor 11 mRNA relative to untreated control cells,human Factor 11 mRNA; 18.75 nM,40%
same,percent inhibition of Factor 11 mRNA relative to untreated control cells,human Factor 11 mRNA; 37.5 nM,63%
same,percent inhibition of Factor 11 mRNA relative to untreated control cells,human Factor 11 mRNA; 75 nM,58%
"417002 (antisense GGTGCACAGTTTCTGGCAGG; 2-13-5 gapmer chemistry, further chemistry not given here) [compound 417002]",IC50,human Factor 11 mRNA,13 nM
same,percent inhibition of Factor 11 mRNA relative to untreated control cells,human Factor 11 mRNA; 2.3 nM,24%
same,percent inhibition of Factor 11 mRNA relative to untreated control cells,human Factor 11 mRNA; 4.7 nM,30%
same,percent inhibition of Factor 11 mRNA relative to untreated control cells,human Factor 11 mRNA; 9.4 nM,46%
same,percent inhibition of Factor 11 mRNA relative to untreated control cells,human Factor 11 mRNA; 18.75 nM,57%
same,percent inhibition of Factor 11 mRNA relative to untreated control cells,human Factor 11 mRNA; 37.5 nM,71%
same,percent inhibition of Factor 11 mRNA relative to untreated control cells,human Factor 11 mRNA; 75 nM,65%
